Assay results as given in patent US20090291857A1, “METHODS TO IDENTIFY INHIBITORS OF THE UNFOLDED PROTEIN RESPONSE” (THE BOARD OF TRUSTEES OF THE LELAND STANFORD JUNIOR …, priority 2006, published 2009).

Key:
[1] = Histopathological analysis of major organs; type: in vivo, mouse; conditions: three doses, 50 mg/kg
Method: Complete blood counts (CBC's) and clinical chemistry panels were performed on blood obtained by cardiac puncture after euthanasia with CO2. Gross necropsies were performed, all major viscera were harvested, fixed in 10% buffered neutral formalin, routinely processed for paraffin embedding, and stained with hematoxylin and eosin (H&E). Sections were analyzed by a board-certified veterinary pathologist (DMB).
Pancreas and liver specimens recovered from mice treated with three doses of either vehicle (top) or irestatin 9389 (50 mg/kg; bottom) were sectioned and stained with hematoxylin and eosin.
The increased sensitivity of irestatin-treated cells to hypoxic stress in vitro indicate that selective inhibition of IRE1α signaling could impact tumor growth. […] In contrast, XBP-1s was not detected in normal pancreas specimens (0/20), and infrequently observed in chronic pancreatitis (1/29) (FIG. 15). To explore the effects to irestatin 9389 in vivo, we first established animal dosing parameters using real-time bioluminescence imaging of SCID mice that had been implanted subcutaneously (s.c.) with tumor cells stably expressing the XBP-luciferase reporter. […] The XBP-luciferase signal returned to basal levels by 24 hours after treatment. […] (FIG. 16).

[2] = system: HT1080 s.c. tumor xenografts; type: in vivo; conditions: 50 mg/kg i.p. every other day, 6 doses
Method: Female 4-6 week-old SCID (B6.CB17) mice supplied by Stanford University Animal Facility were housed in the same facility (American Association of Laboratory Animal Care-approved) with 12 hour light cycles. Food and water were provided ad libitum. All experiments were approved by the institutional care and use committee. The potential toxicities of irestatin 9389 were examined in SCID mice injected i.p. once daily over 4 consecutive days with increasing doses of irestatin 9389 or vehicle control. […] For xenografts, 2×10^6 HT1080 fibrosarcoma cells were resuspended in 50-75 μl PBS and injected s.c. in the dorsal flanks of host mice. When the implanted tumors reached a mean volume of ˜150 mm^3, mice were randomly assigned into different treatment groups. Mice were dosed by i.p. bolus injection with either vehicle (50% DMSO, 20% cremophor EL, 30% ethanol) or irestatin 9389 (50 mg/kg). Tumors (6-8 per group) were measured every 2-4 days with calipers. Tumor volume was calculated using the formula [(W^2×L) 0.52] where W=width and L=length.
A. Irestatin 9389 impairs IREla activity in implanted tumor xenografts. […] Tumor volumes were calculated based on caliper measurements taken every 3-5 days. Data points represent the mean volume calculated from at least 7 tumors per group, with SEM shown in one direction. […]

CHOP/GADD153 = CHOP/GADD153 expression in hypoxic HT1080 cells (Western blot); type: cell-based, human; conditions: 2.5 μM, hypoxia 6-12 hours
Method: A. Effect of irestatin 9389 on PERK and ATF6 pathways. HT1080 cells were treated with vehicle alone (lanes 1-4) or 2.5 μM irestatin 9389 (lanes 5-8) and cultured under aerobic conditions for 18 hours (N) or shifted to hypoxia for the indicated times. Protein lysates were analyzed by Western blot analysis using antisera specific for ATF6 (top), CHOP/GADD153 (middle) or actin (bottom). Arrow indicates the cleaved, transcriptionally active form of ATF6. B. Cleavage of caspase-3 in irestatin-treated cells under hypoxia. HT1080 cells were cultured in normoxia (N) or under hypoxia for 36 hours (H 36) in absence or presence of irestatin 9389 (2.5 μM). Arrows indicate proteolytically cleaved caspase-3. C. Colony formation assay. HT1080 cells were treated as in B under normoxia (N) or hypoxia for 48 hours (H 48). Cells were harvested, counted, and allowed to grow under normal culture conditions for 11-12 days. Colonies were visualized with crystal violet staining. D. Quantification of clonogenic survival assay. Values represent the mean+/−SEM from at least 4 independent experiments. E. TUNEL staining of cells treated as in C. F. Quantification of TUNEL-positive cells. Values represent the mean+/−SEM from at least 3 experiments. […] Cells were harvested at the indicated times and counted by hemocytometer. Values represent the mean calculated from triplicate experiments +/−SEM. […]

With `Cc1csc(NC(=O)CSc2nc3c(c(C(F)(F)F)c2C#N)CCC3)n1` [Compound 9389] the “histopathology of all major organs versus vehicle” value [1] was “no significant differences”, the antitumor effect [2] was “significant cytostatic antitumor effects” and the “expression of CHOP/GADD153” value (CHOP/GADD153) was “increased”.
